Patent publication US20210277050A1, “OPHTHALMIC COMPOSITIONS AND METHODS FOR THE TREATMENT OF EYE DISORDERS” (Cellix Bio Private Limited, priority 2018, published 2021)

Tests used:
[1] = test system: Lens GSH; assay: Lens GSH and GSSG level (enzymatic recycling method) in BSO-treated rats
Procedure: Animals were divided into 3 groups and given 4 injections per day for 2 days, according to the following protocol: Each experimental group consisted of 20-25 animals. BSO, L-Buthionine-(S,R)-sulfoximine was dissolved in 0.1 M NaCl and injected at a concentration of 3 mmol/g body weight (total volume not exceeding 60 ml). CLX-SYN-G165-001 was dissolved in ethanol: NaCl (50:50, v/v). BSO was injected subcutaneously into new born animals (age 28-36 hours). CLX-SYN-G165-001 (15 mg/kg b.w.) was given intraperitoneally. An equivalent volume of ethanol: NaCl and/or NaCl was given to the controls. Rats were sacrificed when they opened their eyes (14-15 days). […] Isolation of lenses: After decapitation of the animals the eyes were carefully dissected out from the ciliary body and the lens capsule was released from the enucleated eye globes. Each lens was weighed and placed in a microfuge tube and frozen immediately in liquid nitrogen for future analyses. Glutathione: Frozen lenses were homogenized in 5% sulfosalicylic acid, 5 mM EDTA, ice cold and bubbled with argon. After centrifugation GSH and GSSG were determined by the enzymatic recycling method.

[2] = test system: BSO-Induced Cataract Formation; assay: BSO-induced cataract formation in rats (slit-lamp, lenses opaque or clear); conditions: read at 14-15 days; for animals developed cataract: new born rats
Procedure: Effects of CLX-SYN-G165-001 on BSO-Induced Cataract Formation in Rats Sprague-Dawley rats (female, timed pregnant) were housed in the Research Animal Facilities and given food and water ad libitum. They were breast fed.
Animals were divided into 3 groups and given 4 injections per day for 2 days, according to the following protocol: Each experimental group consisted of 20-25 animals. BSO, L-Buthionine-(S,R)-sulfoximine was dissolved in 0.1 M NaCl and injected at a concentration of 3 mmol/g body weight (total volume not exceeding 60 ml). CLX-SYN-G165-001 was dissolved in ethanol: NaCl (50:50, v/v). BSO was injected subcutaneously into new born animals (age 28-36 hours). CLX-SYN-G165-001 (15 mg/kg b.w.) was given intraperitoneally. An equivalent volume of ethanol: NaCl and/or NaCl was given to the controls. Rats were sacrificed when they opened their eyes (14-15 days). Cataract formation was visualized with a slit-lamp microscope and the lenses were classified as opaque or clear.

## CCCCS(=N)(=O)CCC(N)C(=O)O [BSO, L-Buthionine-(S,R)-sulfoximine, reference compound]
[1]; BSO-treated rats
  GSH in the lenses, % lower than that of the control lenses: about 55%
[2]; BSO alone, subcutaneously, new born rats (age 28-36 hours)
  animals developed cataracts: 100%

## CC(C)=CCC[C@@H](C)[C@H]1CC[C@@]2(C)C3=C(CC[C@]12C)[C@@]1(C)CC[C@H](OC(=O)CCCC[C@@H]2CCSS2)C(C)(C)[C@@H]1CC3 [CLX-SYN-G165-001]
[1]; treatment with BSO and CLX-SYN-G165-001, p<0.001 vs BSO only
  lens GSH level, % that of control level: 84-87%
[2]; BSO plus CLX-SYN-G165-001 (15 mg/kg b.w. intraperitoneally), 4 injections per day for 2 days, p<0.005 vs BSO only
  animals developed cataract: 13%
[2]; CLX-SYN-G165-001 without BSO (15 mg/kg b.w. intraperitoneally)
  animals developed cataract: 0%
